The values that follow come from patent US20240114902A1, “COMPOSITIONS AND METHODS FOR DETERRING OVIPOSITION BY FRUIT FLIES” (The United States of America, as represented by The …, priority 2022, published 2024).

Test [1] concerns Bactrocera dorsalis (OFF). Kind of test: OFF two-choice cage oviposition bioassay on guava juice-infused agar. Conditions: for OFF oviposition reduction vs control agar: 20 mg/agar, 3 days; for Activity (OFF oviposition group): individual CFA component. It counts as in vivo. Further details: key to Activity (OFF oviposition group): Negative: “OFF negative” (i.e., oviposition reduced); Neutral: “OFF neutral” (i.e., no effect on oviposition); Positive: “OFF positive” (i.e., oviposition increased). On the procedure: Evaluation of oviposition deterrence of CFA: OFF oviposition bioassays were conducted using laboratory two-choice cage experiments with guava juice-infused agar as an oviposition substrate. The agar plates were prepared by pouring 30 mL of boiled agar mixture [1000 mL distilled water, 500 mL guava juice (Deans Foods, El Paso, Texas, USA), 10 g agar, 0.6 g methylparaben, 6.7 mL 95% ethanol, and 3 mL acetic acid] into a 30 mL deli plastic cup to gel. The agar was then covered with a lid to avoid desiccation. The two-choice oviposition bioassay was conducted in screened cages using 20 mated OFF females per cage (12-18 day-old; Jang E B et al., 1997, “Attraction of female oriental fruit fly, Bactrocera dorsalis, to volatile semiochemicals from leaves and extracts of a non-host plant, Panax (Polyscias guilfoylei) in laboratory and olfactometer assays,” J. Chem. Ecol. 23:1389-1401) over 3 days. Each cage was provided with a ball of water-saturated cotton, sugar, and protein hydrolysate in separate 30 mL deli cups and two guava juice agar plates-one treated with CFA diluted in hexane and the other treated with the hexane control. The agar plates were surface-treated either with 200 μL of hexane or 200 μL of CFA in one of 4 doses tested (20, 2, 0.2, and 0.02 mg/200 μL of hexane), placed into a fume hood for 10 minutes prior to use in bioassays, and positioned upside-down (i.e., treated side down) on the center of the outside top of the screened cage 17 cm apart from each other (i.e., one each of control and CFA treated), allowing female flies to oviposit on guava juice agar from the bottom through the cage screen. After three days, OFF eggs in the guava agar were gently separated from the agar in water and the number of eggs were individually counted (up to 100 eggs) or estimated volumetrically at 1 mL OFF eggs=20,000 eggs (Stephanie Gayle personal communication). The experiment was replicated six times per treatment. Determination of bioactive oviposition deterrent components from CFA: A series of bioassays was conducted to identify key deterrent components of CFA for OFF using the same two-choice bioassay design described above. […] Ethanol was used as control and for preparing dilutions of C16:0 and C18:0. Hexane was used as control and for dilutions of the other six compounds tested. Based on the outcome of these bioassays, the eight free fatty acid components were assigned to “OFF negative” (i.e., oviposition reduced), “OFF neutral” (i.e., no effect on oviposition), and “OFF positive” (i.e., oviposition increased) compound groups. Using these groupings, four different blends were formulated (indicated in Table 1), composed at the equivalent ratios and concentrations of each component found in CFA (Zhu J J et al., 2018, supra), to determine key bioactive CFA components in terms of oviposition deterrence on OFF. The approach involved testing the bioactivity of the OFF negative-component blend (4c blend) for oviposition deterrence at three different doses (2, 0.2, and 0.02 mg CFA equivalent/agar), first comparing with hexane control, then with CFA at respective equivalent doses. As the 4c blend was not as effective as CFA, a “OFF negative+OFF neutral” component blend (6c blend) was then formulated, and its effect compared with CFA at 2 and 0.2 mg CFA equivalent/agar. Two subtraction blends with one of the two OFF neutral components removed from the 6c blend (5c-i and 5c-ii blends) were formulated and compared with the 6c blend at 2 and 0.2 mg CFA equivalent/agar. The experiment was replicated four to six times per treatment.

A further test deals with Drosophila suzukii (SWD). Kind of test: SWD laboratory two-choice oviposition bioassay on raspberries. The settings on record: for Behavioral activity (SWD oviposition group): individual CFA component; for Behavioral activity (SWD oviposition group) / effect on SWD oviposition vs control / eggs oviposited among all treated raspberries: two-choice; for reduced SWD oviposition / SWD oviposition deterrence / effect on SWD oviposition vs control / eggs oviposited among all treated raspberries: individual compound; for reduced SWD oviposition: 0.2 mg dose; for SWD oviposition deterrence: 2 mg dose; for effect on SWD oviposition vs control / eggs oviposited among all treated raspberries: 20 mg dose. Further details: key to Behavioral activity (SWD oviposition group): Negative: “SWD negative” compounds (i.e., SWD oviposition was reduced); Neutral: “SWD neutral” compounds (i.e., no effect on oviposition). It counts as in vivo. On the procedure: Laboratory choice test 1 Oviposition bioassays were conducted at USDA-ARS in Hilo, Hawaii using a laboratory two-choice cage experimental set-up with organic raspberries purchased from a local grocery as an oviposition substrate. For all laboratory assays listed below, the receptacles of the raspberries were stuffed with cotton to prevent flies from ovipositing on the interior of the fruit as described previously in Cha D H et al. (2021, supra). The two-choice oviposition bioassay was conducted over 24 hours in screened cages (30 cm W×30 cm L×30 cm H; BugDorm-2120 Insect tent; shop.bugdorm.com) with 30 female and 10 male SWD (7-8 days old) released per cage. Each cage was provided with cotton moistened with water in a 20 mL deli cup and two 30 mL deli cups; one with two raspberries treated with CFA diluted in hexane and the other with two raspberries treated with hexane only. Each raspberry was surface-treated either with 200 μL of hexane or 200 μL of CFA in one of three doses (20, 2, or 0.2 mg CFA/200 μL hexane), placed into a fume hood for 10 minutes or until used in the bioassay. The deli cups with the treated berries were positioned in the center of the floor of the screened cage, 17 cm apart from each other. Female flies were allowed to oviposit on the surface of raspberries for 24 hours. At the conclusion of the bioassay, each 30 mL deli cup containing two raspberries was moved into a 600 mL deli cup with a mesh cap, held for 8 days (22.1±1.9° C., 71.7±3.1% RH, 16:8 L:D), when the number of larvae and pupae were counted. The experiment was replicated four times per treatment. Laboratory choice test 2 A series of bioassays were conducted in Hilo, Hawaii to identify key bioactive deterrent components of CFA for SWD using the same two-choice bioassay described above. […] Due to solubility differences, ethanol was used as control and for dilution of C16:0 and C18:0, while hexane was used as control and for dilution of the other six compounds tested. Based on the outcome of these bioassays, the eight free fatty acid components of CFA were grouped into two groups; “SWD negative” compounds (i.e., SWD oviposition was reduced) and “SWD neutral” compounds (i.e., no effect on oviposition), and tested whether the blend of “SWD negative” compounds had the same oviposition deterrence as the CFA at their equivalent concentrations as in CFA (see Table 2). The oviposition deterrence of the blend of “SWD negative” compounds was first compared to hexane at three different doses (20, 2 and 0.2 mg CFA equivalent/raspberry) and subsequently compared to CFA at 2 mg equivalent dose.

`CCCCCCCC(=O)O` [C8:0, caprylic acid]: in test [1], the “OFF oviposition reduction vs control agar” value was found to be 95% and the “Activity (OFF oviposition group)” value was “Negative”. Further, the “OFF oviposition deterrence at lower dose” value in test [1] (individual compound, 2 mg dose) is listed as “maintained OFF oviposition deterrence”. Also, in the test with Drosophila suzukii (SWD), the “Behavioral activity (SWD oviposition group)” value was “Negative”, the “reduced SWD oviposition” value was “not detected”, the “SWD oviposition deterrence” value is “maintained oviposition deterrence” and the “effect on SWD oviposition vs control” value is “almost completely inhibited oviposition”. In the test with Drosophila suzukii (SWD), the “eggs oviposited among all treated raspberries” value is reported as “zero”.
With `CCCCCCCCCC(=O)O` [C10:0, capric acid], in test [1], the “OFF oviposition reduction vs control agar” value was 92% and the “Activity (OFF oviposition group)” value is on record as “Negative”. In the test with Drosophila suzukii (SWD), the “Behavioral activity (SWD oviposition group)” value is “Negative”, the “reduced SWD oviposition” value is recorded as “not detected”, the “SWD oviposition deterrence” value is given as “maintained oviposition deterrence” and the “effect on SWD oviposition vs control” value is “almost completely inhibited oviposition”. Further, in the test with Drosophila suzukii (SWD), the “eggs oviposited among all treated raspberries” value is “one”.
